ChEMBL document CHEMBL1201862, “PubChem BioAssay data set” (2004)
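Interpolation was linear, between the two tested concentrations surrounding the appropriate level; five concentrations were tested over 48 hours in 96-well plates. GI50 marks 50% less growth.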 Active and inactive are the calls of the source. No stated cut-off is given here; in the data, active = GI50 up to about 1.1 µM and inactive = higher.

Experiments:
Experiment in all cases: DTP human tumour cell line panel, 48 h
SK-MEL-2 = system: SK-MEL-2
HT-29 = system: HT-29
RPMI-8226 = system: RPMI-8226
HCT-116 = system: HCT-116
HCT-15 = system: HCT-15
ACHN = system: ACHN
OVCAR-3 = system: OVCAR-3
HOP-62 = system: HOP-62
MDA-MB-231 = system: MDA-MB-231
UO-31 = system: UO-31
HL-60 = system: HL-60
SN12C = system: SN12C
HCC 2998 = system: HCC 2998
MDA-N = system: MDA-N
UACC-62 = system: UACC-62
NCI-H522 = system: NCI-H522
786-0 = system: 786-0
SF-268 = system: SF-268
CAKI-1 = system: CAKI-1
K562 = system: K562
T47D = system: T47D
SK-MEL-28 = system: SK-MEL-28
DU-145 = system: DU-145
A498 = system: A498
SK-OV-3 = system: SK-OV-3
Hs-578T = system: Hs-578T
COLO 205 = system: COLO 205
SW-620 = system: SW-620
A549 = system: A549
UACC-257 = system: UACC-257
IGROV-1 = system: IGROV-1
SNB-75 = system: SNB-75
CCRF-CEM = system: CCRF-CEM
M14 = system: M14
SK-MEL-5 = system: SK-MEL-5
OVCAR-5 = system: OVCAR-5
LOX IMVI = system: LOX IMVI
NCI/ADR-RES = system: NCI/ADR-RES
HOP-92 = system: HOP-92
OVCAR-8 = system: OVCAR-8
SF-539 = system: SF-539
EKVX = system: EKVX
NCI-H23 = system: NCI-H23
SNB-19 = system: SNB-19
NCI-H226 = system: NCI-H226
Malme-3M = system: Malme-3M
NCI-H460 = system: NCI-H460
MDA-MB-435 = system: MDA-MB-435
U-251 = system: U-251
RXF 393 = system: RXF 393
OVCAR-4 = system: OVCAR-4
SF-295 = system: SF-295
SR = system: SR
PC-3 = system: PC-3
MOLT-4 = system: MOLT-4

Measured: GI50

CCCCCC(/C=N/Nc1ccccc1)C(O)(C(F)(F)F)C(F)(F)F (stereo not given)
> 100 µM: HCT-15
inactive: SK-MEL-2 > 100 µM | HT-29 > 100 µM | RPMI-8226 > 100 µM | HCT-116 > 100 µM | ACHN > 100 µM | OVCAR-3 > 100 µM | HOP-62 > 100 µM | MDA-MB-231 > 100 µM | UO-31 > 100 µM | HL-60 > 100 µM | SN12C > 100 µM | HCC 2998 > 100 µM | MDA-N > 100 µM | UACC-62 > 100 µM | NCI-H522 > 100 µM | 786-0 > 100 µM | SF-268 > 100 µM | CAKI-1 > 100 µM | K562 > 100 µM | T47D > 100 µM | SK-MEL-28 > 100 µM | DU-145 > 100 µM | A498 > 100 µM | SK-OV-3 > 100 µM | Hs-578T > 100 µM | COLO 205 > 100 µM | SW-620 > 100 µM | A549 > 100 µM | UACC-257 > 100 µM | IGROV-1 > 100 µM | SNB-75 > 100 µM | CCRF-CEM 83.2 µM | M14 > 100 µM | SK-MEL-5 > 100 µM | OVCAR-5 > 100 µM | LOX IMVI > 100 µM | NCI/ADR-RES > 100 µM | HOP-92 > 100 µM | OVCAR-8 > 100 µM | SF-539 > 100 µM | EKVX > 100 µM | NCI-H23 > 100 µM | SNB-19 > 100 µM | NCI-H226 > 100 µM | Malme-3M > 100 µM | NCI-H460 > 100 µM | MDA-MB-435 > 100 µM | U-251 > 100 µM | RXF 393 > 100 µM | OVCAR-4 > 100 µM | SF-295 > 100 µM | SR > 100 µM | PC-3 > 100 µM | MOLT-4 61.8 µM
